Laboratory results from US5550124A, “Use of peripheral-type benzodiazpine sites for treatment of CNS trauma or disease” (priority 1991, dated 1996).
Entries after “also recorded” stand apart in the source; their conditions may differ. Where two headings read alike, the source gives them in different places.

Assays:
[1] = dogs; cited from earlier work
[2] = test system: NMDA receptor; conditions: in vivo; cited from earlier work
[3] = test system: NMDA receptor; conditions: cats; cited from earlier work
[4] = test system: NMDA receptor; conditions: rats; cited from earlier work
[5] = in vivo; cited from earlier work
[6] = in vivo; cited from earlier work; remark: listed apart in the source
[7] = in vivo; cited from earlier work; remark: listed apart in the source
[8] = rats; cited from earlier work
[9] = administered post-ischemia in animals; cited from earlier work
[10] = in vivo; cited from earlier work; remark: listed apart in the source
[11] = Physical trauma (head injury) model, grip score 18 hours post-injury; type: in vivo, mice (male CF-1)
Description: Two tests which can be readily performed are observation of grip score and observation of grip time in injured test animals. Another test for agonist activity is for decrease in mortality caused by the CNS injury. Mice can be treated to simulate CNS injury by a variety of methods: they can be deprived of oxygen by administration of KCN (Nauquier, A., et al., Arch. Int. Pharmacodyn., 249:330 (1981)) or by temporary tying-off of the carotid artery (Braughler, J. M. and Lainer, M. J., "The effects of large doses of methylprednisolone on neurologic recovery and survival in the Mongolian gerbil following three hours of unilateral carotid occlusion," CNS Trauma, 3:153-162 (1986)). Alternatively, blows can be administered to the head or the spinal cord of the test animal.
The following protocol was used:
The compound to be tested was weighed and suspended in a polyethylated castor oil solution ("Cremophore") (21% Cremaphore, 3% ethanol in 0.9% saline). The concentration of the solution was then adjusted for administration at a dose of 0.01 cc/gm body weight. For example, for a dose of 10 mg/Kg, the solution was made 1.0 mg/cc, and a 23 g mouse would receive 0.23 cc of this solution. The solution was sonicated for approximately 90 minutes, or until the compound is dissolved.
Male CF-1 mice (15-25 gm) were weighed and marked for identification purposes. Each individual mouse was restrained by grasping the dorsal skin of the neck until the mouse was still. An impounder was used to administer the trauma. The impounder consists of a weight suspended over the animal's head at a height sufficient to produce significant injury when dropped, and a means for immobilizing the animal (in this case, room to hold the animal in place). […] 62:882-887, 883. The mouse was positioned properly under the impounder, and the weight was released from its preset height (11 CM).
Immediately following injury, the mouse was placed under a heat lamp. At various times after injury, the drug was administered intravenously at the specified dose. The time of injury and the time of injection were recorded.
B) Measurement of Grip Score
Each mouse was evaluated 18 hours post-injury for neurological deficit. The delay of 18 hours provided time for any sedative effects of the compound to wear off. It also provided time for healing to occur. Mortality was also noted. A standard grip test, as described in Hall et al., J. Neurosurg. 68:456-461 (1988), was used. The apparatus consisted of a taut string suspended between two uprights, 60 cm in length and 40 cm above a padded table.
Each mouse was picked up by the tail and placed on the string. […] The tail was then released. Grip score was recorded based on the mouse's performance while on the string. The following criteria were used (taken from Hall, E. D., J. Neurosurg. 62:882-887 (1985)):
C) Statistical Analysis Results of the above test were analyzed for statistical significance using the Mann-Whitney U test. See R. V. Tallarida & R. B. Murray, MANUAL OF PHARMACOLOGIC CALCULATIONS WITH COMPUTER PROGRAMS, Springer-Verlag, N.Y., pp. 57-59 (1981). This test was used to compare each set of grip scores for a particular dose of a particular compound against the grip scores for the control group.

[12] = type: in vivo, mice (male CF-1)
[13] = molecular target: T1, peripheral-type BZ receptors (Rattus norvegicus, UniProt P16257); assay: Competitive binding assay, displacement of 3H-Ro5-4864 in brain homogenates
T1 construct: displacement of ^3 H-RO5-4864 in brain homogenates; from tissue; host or cells: brain homogenates
Description: Sprengel, R., et al., "Molecular cloning and expression of cDNA encoding a peripheral-type benzodiazepine receptor," J. Biol. Chem., 264:20415-20421 (1989).
Some of these compounds were further tested in in vivo studies.

[14] = in vivo; cited from earlier work; remark: listed apart in the source
[15] = test system: platelet aggregation; conditions: cited from earlier work
[16] = ischemic baboons; cited from earlier work

Fc1ccc(C(c2ccc(F)cc2)N2CCN(C/C=C/c3ccccc3)CC2)cc1 [Flunarizine]
effect on cerebral blood flow [1]: no increase in cerebral blood flow or improvement in cerebral metabolism

C[C@]12N[C@H](Cc3ccccc31)c1ccccc12 [MK-801]
adverse reactions [2]: respiratory depression and elevated CO2 level; also recorded: behavioral changes, including a psychotic-like response and diminished cognitive and mental status
effect on blood pressure [3]: increases blood pressure
effect on blood pressure [4]: increases blood pressure

CN1C(=O)CN=C(c2ccccc2)c2cc(Cl)ccc21 [Diazepam, 7-Chloro-1,3-dihydro-1-methyl-5-phenyl-2H-1,4-benzodiazepin-2-one]
effect in cerebral ischemia [5]: somewhat effective in treatment of cerebral ischemia

CCCCC[C@H](O)/C=C/[C@@H]1[C@H]2C/C(=C/CCCC(=O)O)O[C@H]2C[C@H]1O [PGI2, prostaglandin I2]
adverse effects [6]: tendency to precipitate hypotension
half life [7]: 3 min

COC(=O)C1=C(C)NC(C)=C(C(=O)OC)C1c1ccccc1[N+](=O)[O-] [Nifedipine]
effect on cerebral blood flow [8]: antagonize cerebral blood flow

CN1CCC(=C2c3ccccc3C=Cc3ccccc32)CC1 [cyproheptadine]
effect on neurologic function [9]: help preserve neurologic function

CN(C)CCCSc1ccccc1NC(=O)/C=C/c1ccccc1 [cinanserin]
effect on neurologic function [9]: help preserve neurologic function

CC(=O)CCCCn1c(=O)c2c(ncn2C)n(C)c1=O [Pentoxifylline]
adverse effects [6]: chest pain, dyspepsia, nausea, vomiting, dizziness, headache, tremor, anxiety, blurred vision, malaise, and others
effect on blood viscosity / red blood cell flexibility [10]: improves the oxygenation of ischemic tissues by decreasing blood viscosity

CCC(C)N(C)C(=O)c1cc2ccccc2c(-c2ccccc2Cl)n1 (stereo not drawn) [PK 11195, N-methyl-N-1-(1-methyl,propyl)(2-chlorophenyl)-3-isoquinoline carboxamide]
grip score 18 hours post trauma (in words) ([11]; 0.1 mg/kg i.v., FIG. 1): statistically significant increase in the grip score
neurological deficit score (grip score) ([11]; 1 mg/kg i.v., 5 min post injury, control 2.06 ± 0.23, P<0.05): 3.07 ± 0.47
neurological deficit score (grip score) ([11]; 1 mg/kg i.v., 30 min post injury, control 1.54 ± 0.43, P<0.004): 3.53 ± 0.36
neurological deficit score (grip score) ([11]; 1 mg/kg i.v., 60 min post injury, control 2.54 ± 0.51): 1.93 ± 0.42
neurological deficit score (grip score) ([11]; 10 mg/kg i.v., 5 min post injury, control 2.06 ± 0.23, P<0.05): 2.89 ± 0.40
neurological deficit score (grip score) ([11]; 10 mg/kg i.v., 30 min post injury, control 1.56 ± 0.50): 2.53 ± 0.40
neurological deficit score (grip score) ([11]; 10 mg/kg i.v., 60 min post injury, control 1.38 ± 0.60, P<0.03): 2.62 ± 0.40
grip score versus controls (in words) ([11]; 10 mg/kg, administered up to 1 hour post-injury): statistically significant increase in grip score
effectiveness in treatment of CNS trauma/damage (in words) ([11]; grip score 18 h post trauma, FIGS. 1-8): effective
percent survival (in words) ([12]; after KCN, increasing dose of compound, FIG. 10): increasing the dose of the compound increases the percent survival
protection against KCN mortality (in words) ([12]; varied KCN dose, FIG. 11): protect against higher doses of KCN
binding affinity to peripheral-type BZ sites (in words) [13]: high degree of affinity
effect in cardiac ischemia [14]: ineffective in treating cardiac ischemia

COc1ccc2c(c1)c(CC(=O)O)c(C)n2C(=O)c1ccc(Cl)cc1 [indomethacin]
effect on platelet aggregation [15]: inhibit platelet aggregation
edema, cerebral blood flow and carbon dioxide reactivity [16]: significantly increase edema and decrease cerebral blood flow and carbon dioxide reactivity
